Results from patent US5792635A, “Method of inhibiting the sodium/proton exchanger NHE3 and method of inhibiting growth by administering squalamine” (priority 1995, dated 1998).
Values after ≈ are worked out from the molar mass of the structure shown. “Also recorded” adds a separate entry of the source.

Legend:
P. = experiment: Antibiotic activity, MIC; assay type: cell-based; conditions: read-out: MIC Values
S. aureus = experiment: Antibiotic activity, MIC; assay type: cell-based; conditions: Staphylococcus aureus
C. albicans = experiment: Antibiotic activity, MIC; assay type: cell-based; conditions: Candida albicans
E. Coli = experiment: Antibiotic activity, MIC; assay type: cell-based; conditions: Escherichia coli
HM = HM MTT assay (Table II); assay type: cell-based; conditions: read-out: Minimum Effective Concentration, HM MTT assay
chick embryo = experiment: Chick embryo diss. assay (Table II); assay type: in vivo
Experimental: (§1) Using the chick embryo vitelline capillaries assay, compounds were tested for their ability to induce capillary regression. Each compound was applied in 0.1 ml of 15% Ficol 400 and PBS onto the embryo, and vascular regression was assessed after 60 minutes.

[1] = tested on: human microvascular cells; experiment: Inhibition of endothelial cell cord formation in vitro; assay type: cell-based; conditions: for minimal effective concentration: Homo sapiens, Endothelial cell, Table II, read-out: Minimum Effective Concentration, Cord Formation
Text: Endothelial cells have the capacity in vitro to form tubular aggregates resembling capillaries in various early stages of formation. This conversion occurs under relatively specific conditions, in which essential growth factors along with an effective substratum are provided. It has been shown that both the interaction of growth factors with the endothelial cell and its attachment to a substratum activate the NHE. The activation of this exchanger is believed to be required for subsequent morphologic transformation of the endothelial cell into a multicellular tubular structure.
To assess the effect of compounds on the cord-like structures formed by human microvascular cells when plated in the presence of VEGF (Vascular Endothelial Growth Factor) and basic fibroblast growth factor on a collagen matrix, a standard cord formation assay was used.

Xenopus tadpoles = experiment: Tadpole assay
[2] = tested on: vitelline capillaries of 3- to 5-day chick embryo; experiment: Chick embryo vitelline capillary regression assay; assay type: in vivo; set-up: key to vascular reactivity: +: Vascular reactivity; 0: No vascular reactivity; +/-: Equivocal reactivity; conditions: for vascular reactivity: 60 minutes
Experimental: as §1
The 3-day chick embryo consists of an embryonic disc from which numerous vessels emerge and return, forming a "figure 8"-shaped structure--the embryo in the center with vascular loops extending outward over both poles. […] Following a lag period of around 15 minutes, the constriction of continuity between capillary and secondary vessels, generally on the "venous" side, was observed. Continued pulsatile blood flow progressed, resulting in a "swelling" of the blind tube, followed by a pinching off of the remaining connection and formation of an enclosed vascular sac resembling a "blood island." This process progressed until only the largest vessels remained intact.

[3] = tested on: L1210 lymphoblastic leukemia cells; experiment: Mouse model of leukemia (L1210), survival and hematological profile; conditions: L1210-inoculated mice
Text: C57B mice were inoculated with L1210 lymphoblastic leukemia cells at an inoculum that causes leukemia in 100% of animals.

LLC = LLC MTT assay (Table II); assay type: cell-based; conditions: Lewis lung carcinoma, read-out: Minimum Effective Concentration, LLC MTT

## CC(C)CCC[C@@H](C)[C@H]1CC[C@H]2[C@@H]3CC[C@H]4C[C@H](NCCCCN)CC[C@]4(C)[C@H]3CC[C@]12C
P.
  MIC: > 256 µg/mL
S. aureus
  MIC: 4 µg/mL (≈ 8.72 µM)
C. albicans
  MIC: 64 µg/mL (≈ 139 µM)
E. Coli
  MIC: > 256 µg/mL

## CC(C)CCC[C@@H](C)[C@H]1CC[C@H]2[C@@H]3CC[C@H]4C[C@@H](NCCCCN)CC[C@]4(C)[C@H]3CC[C@]12C
P.
  MIC: > 256 µg/mL
S. aureus
  MIC: 16 µg/mL (≈ 34.9 µM)
C. albicans
  MIC: > 256 µg/mL
E. Coli
  MIC: > 256 µg/mL

## CC(C)C(O)CC[C@@H](C)[C@H]1CC[C@H]2[C@@H]3[C@H](O)C[C@H]4C[C@@H](NCCCNCCCCN(C)C)CC[C@]4(C)[C@H]3CC[C@]12C (stereo partly drawn)
P.
  MIC: 129 µg/mL (≈ 224 µM)

## CC(CCC(=O)O)[C@H]1CCC2C3CC[C@H]4C[C@@H](NCCCNCCCCN)CC[C@]4(C)C3CC[C@@]21C (stereo partly drawn)
HM
  minimal effective concentration: 13.8 µg/mL
Chick embryo
  Minimum Effective Concentration, chick embryo diss. assay: 0.001 µg

## CC(CCC(=O)O)[C@H]1CCC2C3C(CC[C@@]21C)[C@@]1(C)CC[C@H](NCCCNCCCCNCCCN)C[C@H]1C[C@H]3O (stereo partly drawn)
[1]
  minimal effective concentration: > 10 µg/mL

## CC(COS(=O)(=O)O)C(=O)CC[C@@H](C)[C@H]1CC[C@H]2[C@@H]3[C@H](O)C[C@H]4C[C@@H](NCCCNCCCCN)CC[C@]4(C)[C@H]3CC[C@]12C (single isomer, unassigned) [Compound 1360]
Xenopus tadpoles; 10 μg/ml, stage 59-60 Xenopus
  observed response in tadpole: Swelling and lysis of certain erythrocytes occurred; also recorded: Subsequent tissue breakdown occurred in areas of tail surrounding these nuclear plugs; also recorded: extensive vasocclusion occurred within 60 minutes throughout the tail
[2]; within 20 minutes
  effect on chick embryo blood: the blood circulating through the embryonic vessels exhibited a brighter red color

## N.N.[Cl][Pt][Cl] [Cisplatin, reference compound]
[3]
  hematological profile: profound anemia by day 28

## C[C@H](CCC(=O)O)[C@H]1CC[C@H]2[C@@H]3[C@H](O)C[C@H]4C[C@@H](NCCCNCCCCN)CC[C@]4(C)[C@H]3CC[C@]12C [Compound 381]
[2]; 1 μg applied
  vascular reactivity: 0

## COC(=O)CC[C@@H](C)[C@H]1CC[C@H]2[C@@H]3[C@H](O)C[C@@H]4C[C@@H](NCCN)CC[C@]4(C)[C@H]3CC[C@]12C [Compound 409]
Xenopus tadpoles; Xenopus tadpole assay
  functional similarity in tadpole assay: functionally similar to compound 1437
[2]; 1 μg applied
  vascular reactivity: 0

## COC(=O)CC[C@@H](C)[C@H]1CC[C@H]2[C@@H]3[C@H](O)C[C@@H]4C[C@@H](NCCCNCCCCNCCCN)CC[C@]4(C)[C@H]3CC[C@]12C [Compound 411]
[2]; 0.1 μg applied
  vascular reactivity: 0

## C[C@H](CCC(=O)O)[C@H]1CC[C@H]2[C@@H]3[C@H](O)C[C@@H]4C[C@H](NCCCNCCCCNCCCN)CC[C@]4(C)[C@H]3CC[C@]12C [Compound 412]
Xenopus tadpoles; Xenopus tadpole assay
  functional similarity in tadpole assay: pharmacologic activity similar to that seen for FX 3
[1]; 10.0 μg/ml
  endothelial cord formation: +

## C[C@H](CCC(=O)O)[C@H]1CC[C@H]2[C@@H]3[C@H](O)C[C@@H]4C[C@@H](NCCCNCCCCNCCCN)CC[C@]4(C)[C@H]3CC[C@]12C [Compound 413]
Xenopus tadpoles; Xenopus tadpole assay
  functional similarity in tadpole assay: effects like those produced by compound 1436
[1]; 0.1 μg/ml
  endothelial cord formation: -
[2]; 1 μg applied
  vascular reactivity: 0

## C[C@H](CCC(=O)O)[C@H]1CC[C@H]2[C@@H]3[C@H](O)C[C@@H]4C[C@H](NCCN)CC[C@]4(C)[C@H]3CC[C@]12C [Compound 414]
Xenopus tadpoles; Xenopus tadpole assay
  functional similarity in tadpole assay: pharmacologic activity similar to Fraction 1
  potency in tadpole assay relative to Fraction 1: potencies comparable to that of Fraction 1
[2]; 1 μg applied
  vascular reactivity: 0

## C[C@H](CCC(=O)O)[C@H]1CC[C@H]2[C@@H]3[C@H](O)C[C@@H]4C[C@@H](NCCN)CC[C@]4(C)[C@H]3CC[C@]12C [Compound 415]
[1]; 10.0 μg/ml
  endothelial cord formation: +/T
[2]; Table 5
  activity in vitelline capillary regression assay: especially active

## CC(C)CCCC(C)[C@H]1CCC2C3C(CC[C@@]21C)[C@@]1(C)CC[C@@H](NCCCNCCCCN)C[C@@H]1C[C@H]3O (stereo partly drawn) [drawing 86]
HM
  minimal effective concentration: 4 µg/mL
Chick embryo
  Minimum Effective Concentration, chick embryo diss. assay: > 10 µg

## CC(C)CCCC(C)[C@H]1CCC2C3C(CC[C@@]21C)[C@@]1(C)CC[C@H](N)C[C@@H]1C[C@H]3O (stereo partly drawn) [drawing 88]
Chick embryo
  Minimum Effective Concentration, chick embryo diss. assay: 1 µg

## COC(=O)CCC(C)[C@H]1CCC2C3C(CC[C@@]21C)[C@@]1(C)CC[C@H](NCCN)C[C@H]1C[C@H]3O (stereo partly drawn) [drawing 92]
Chick embryo
  Minimum Effective Concentration, chick embryo diss. assay: > 1 µg

## COC(=O)CCC(C)[C@H]1CCC2C3C(CC[C@@]21C)[C@@]1(C)CC[C@@H](NCCN)C[C@H]1C[C@H]3O (stereo partly drawn) [drawing 93]
HM
  minimal effective concentration: 2.6 µg/mL
[1]
  minimal effective concentration: 10 µg/mL
Chick embryo
  Minimum Effective Concentration, chick embryo diss. assay: 0.01 µg

## COC(=O)CCC(C)[C@H]1CCC2C3CC[C@H]4C[C@@H](NCCCNCCCCNCCCN)CC[C@]4(C)C3CC[C@@]21C (stereo partly drawn) [drawing 99]
HM
  minimal effective concentration: 5 µg/mL

## COC(=O)CCC(C)[C@H]1CCC2C3C[C@@H](O)[C@H]4C[C@@H](NCCCNCCCCNCCCN)CC[C@]4(C)C3CC[C@@]21C (stereo partly drawn) [drawing 101]
Chick embryo
  Minimum Effective Concentration, chick embryo diss. assay: 1 µg

## COC(=O)CCC(C)[C@H]1CCC2C3C[C@@H](O)[C@H]4C[C@H](NCCN)CC[C@]4(C)C3CC[C@@]21C (stereo partly drawn) [drawing 103]
Chick embryo
  Minimum Effective Concentration, chick embryo diss. assay: > 1 µg

## CC(CCC(=O)O)[C@H]1CCC2C3C[C@@H](O)[C@H]4C[C@@H](NCCN)CC[C@]4(C)C3CC[C@@]21C (stereo partly drawn) [drawing 105]
Chick embryo
  Minimum Effective Concentration, chick embryo diss. assay: 1 µg

## COC(=O)CCC(C)[C@H]1CCC2C3CC[C@@H]4C[C@H](NCCCNCCCCNCCCN)CC[C@]4(C)C3C[C@H](O)[C@@]21C (stereo partly drawn) [drawing 106]
Chick embryo
  Minimum Effective Concentration, chick embryo diss. assay: 1 µg

## CC(CCC(=O)O)[C@H]1CCC2C3CC[C@@H]4C[C@H](NCCCNCCCCNCCCN)CC[C@]4(C)C3C[C@H](O)[C@@]21C (stereo partly drawn) [drawing 107]
Chick embryo
  Minimum Effective Concentration, chick embryo diss. assay: > 1 µg

## COC(=O)CCC(C)[C@H]1CCC2C3CC[C@H]4C[C@H](NCCCNCCCCNCCCN)CC[C@]4(C)C3CC[C@@]21C (stereo partly drawn) [drawing 108]
LLC
  minimal effective concentration: 6.8 µg/mL
Chick embryo
  Minimum Effective Concentration, chick embryo diss. assay: > 1 µg

## COC(=O)CCC(C)[C@H]1CCC2C3C(CC[C@@]21C)[C@@]1(C)CC[C@H](NCCCNCCCCNCCCN)C[C@H]1C[C@H]3O (stereo partly drawn) [drawing 109]
[1]
  minimal effective concentration: 10 µg/mL
Chick embryo
  Minimum Effective Concentration, chick embryo diss. assay: > 1 µg

## CC(CCC(=O)O)[C@H]1CCC2C3C(CC[C@@]21C)[C@@]1(C)CC[C@@H](NCCCNCCCCNCCCN)C[C@H]1C[C@H]3O (stereo partly drawn) [drawing 110]
HM
  minimal effective concentration: 18.1 µg/mL
[1]
  minimal effective concentration: > 10 µg/mL

## CC(CCC(=O)O)[C@H]1CCC2C3C(CC[C@@]21C)[C@@]1(C)CC[C@H](NCCN)C[C@H]1C[C@H]3O (stereo partly drawn) [drawing 113]
[1]
  minimal effective concentration: > 10 µg/mL

## COC(=O)CCC(C)[C@H]1CCC2C3CC[C@@H]4C[C@H](NCCN)CC[C@]4(C)C3C[C@H](O)[C@@]21C (stereo partly drawn) [drawing 114]
HM
  minimal effective concentration: 2.4 µg/mL

## CC(CCC(=O)O)[C@H]1CCC2C3CC[C@@H]4C[C@H](NCCN)CC[C@]4(C)C3C[C@H](O)[C@@]21C (stereo partly drawn) [drawing 115]
Chick embryo
  Minimum Effective Concentration, chick embryo diss. assay: > 1 µg

## CC(C)[C@@H](CC[C@@H](C)[C@H]1CC[C@H]2[C@@H]3[C@H](O)C[C@H]4C[C@@H](NCCCNCCCCN)CC[C@]4(C)[C@H]3CC[C@]12C)OS(=O)(=O)O [drawing 116]
HM
  minimal effective concentration: 7.8 µg/mL

## CC(C)[C@@H](CC[C@@H](C)[C@H]1CC[C@H]2[C@@H]3[C@H](O)C[C@H]4C[C@@H](NCCCNCCCCNCCCN)CC[C@]4(C)[C@H]3CC[C@]12C)OS(=O)(=O)O [drawing 119]
HM
  minimal effective concentration: 6.9 µg/mL
LLC
  minimal effective concentration: 16.7 µg/mL
